Drawing on PubChem BioAssay (NCI), this text covers GI50 and TGI for 12 compounds.

SMILES strings stand for the structures.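 Tested at 5 concentrations; 48 h exposure; 96-well plates; endpoints linearly interpolated, else capped at highest concentration. GI50 marks 50% less growth. TGI: total growth inhibition.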 A value given as a limit tells only on which side of the number the result lay.

Some test systems named below: U251 CNS; T-47D breast; MDA-MB-435; COLO 205 colon; SF-295 CNS; NCI-H522 lung; CAKI-1 renal; UACC-62 melanoma; OVCAR-4 ovarian; HCC-2998 colon.
Assay in all cases: inhibition of tumour cell growth, NCI panel, 48 h

For the compound `COc1ccc2c(c1)/C(=C\c1c(Cl)[nH]c3ccc(OC)cc13)C(=O)N2`, the GI50 in the test with U251 CNS was 19.7 µM; in the test on T-47D breast it was 13 µM; in the test on MDA-MB-435, 33.7 µM; in the test on COLO 205 colon it was 18.9 µM; in the test on SF-295 CNS, 19.9 µM; with NCI-H522 lung, 26.8 µM. For the same compound, the GI50 with CAKI-1 renal was more than 100 µM; in the test on UACC-62 melanoma it was 35.2 µM; in the test with OVCAR-4 ovarian, 41.8 µM. For the same compound, the TGI in the test on U251 CNS is 43.8 µM; in the test with T-47D breast it was 32 µM; in the test with MDA-MB-435 it was more than 100 µM; with COLO 205 colon it was 39.8 µM; in the test on SF-295 CNS it was 45.8 µM; in the test on NCI-H522 lung, 74.4 µM. The TGI with CAKI-1 renal, with UACC-62 melanoma and in the test with OVCAR-4 ovarian was more than 100 µM throughout.
Take `Nc1ccccc1C#C/C=C\C#Cc1ccccc1[N+](=O)[O-]`: the GI50 with U251 CNS is 3.72 µM; with T-47D breast it was 34.6 µM; in the test on MDA-MB-435, 0.402 µM; in the test with COLO 205 colon, 4.38 µM; in the test with SF-295 CNS, 7.31 µM; with HCC-2998 colon it was 12 µM. The GI50 with NCI-H522 lung was 7.25 µM; in the test on CAKI-1 renal, 3.28 µM; in the test on UACC-62 melanoma, 2.02 µM. Further, the TGI is 18.9 µM with U251 CNS; more than 100 µM in the test on T-47D breast; 14.1 µM in the test on MDA-MB-435; 22 µM with COLO 205 colon; 85.8 µM in the test with SF-295 CNS; 43.6 µM with HCC-2998 colon. Moreover, the figures for the TGI with NCI-H522 lung, with CAKI-1 renal and in the test with UACC-62 melanoma were 39.8 µM, 23 µM and 10.6 µM, respectively.
Consider `COc1cc(/C=C2\C(=O)Nc3ccc(N(C)C)cc32)cc(OC)c1OC`, for which the GI50 is 3.1 µM in the test with U251 CNS; 2.49 µM in the test on T-47D breast; 1.89 µM in the test with COLO 205 colon; 3.16 µM with SF-295 CNS; 8.46 µM in the test with HCC-2998 colon; 1.47 µM in the test on NCI-H522 lung. Also, the GI50 is 5.78 µM in the test on CAKI-1 renal, 2.5 µM in the test with UACC-62 melanoma and 3.7 µM in the test with OVCAR-4 ovarian. For the same compound, the TGI in the test with U251 CNS was 14.6 µM; in the test on T-47D breast, more than 31.3 µM; in the test on COLO 205 colon, 4.73 µM; in the test with SF-295 CNS, more than 100 µM; in the test with HCC-2998 colon, 46.4 µM; in the test with NCI-H522 lung it was 5.75 µM. Besides, the results for the TGI with CAKI-1 renal, in the test on UACC-62 melanoma and in the test on OVCAR-4 ovarian were more than 80.5 µM, more than 100 µM and more than 100 µM, respectively.
For `O=C(O)c1ccc2c(c1)CCCC(c1ccc(Cl)cc1Cl)=C2c1ccc(O[C@H]2CCN(CCCF)C2)cc1`, the GI50 is 10.1 µM with U251 CNS; less than 0.01 µM with T-47D breast; 10.5 µM in the test on MDA-MB-435; 14.9 µM with COLO 205 colon; 7.86 µM in the test on SF-295 CNS; 13.6 µM in the test with HCC-2998 colon. Also, the GI50 in the test with CAKI-1 renal is 11.5 µM; in the test with UACC-62 melanoma, 12.7 µM; in the test on OVCAR-4 ovarian, 12 µM. Also, the TGI in the test on U251 CNS came out at 25.2 µM; in the test on T-47D breast, 22.5 µM; in the test with MDA-MB-435 it was 24.3 µM; in the test on COLO 205 colon it was 33.7 µM; with SF-295 CNS, 20.5 µM; in the test on HCC-2998 colon it was 27.9 µM. For the same compound, the results for the TGI in the test on CAKI-1 renal, in the test on UACC-62 melanoma and in the test on OVCAR-4 ovarian were 24 µM, 26.3 µM and 30 µM, respectively.
As to `Cc1ccc(-c2csc(NC(=O)CN3CCN(c4cc5c(cc4F)c(=O)c(C(=O)O)cn5C4CC4)CC3)n2)cc1`, the GI50 is 0.388 µM in the test on U251 CNS; 1.16 µM with T-47D breast; 1.77 µM with MDA-MB-435; 1.66 µM with COLO 205 colon; 1.15 µM in the test with SF-295 CNS; 2.04 µM with HCC-2998 colon. The GI50 in the test with NCI-H522 lung is 0.322 µM; with UACC-62 melanoma it was 1.26 µM; with OVCAR-4 ovarian it was 2.38 µM. The TGI with U251 CNS was 13.4 µM; in the test on T-47D breast it was 6.02 µM; in the test on MDA-MB-435, more than 100 µM; in the test with COLO 205 colon it was 3.75 µM; in the test on SF-295 CNS, 13.9 µM; with HCC-2998 colon, more than 100 µM. In addition, the TGI in the test on NCI-H522 lung is 3.09 µM; in the test with UACC-62 melanoma, 13.1 µM; in the test on OVCAR-4 ovarian, more than 100 µM.
With `CN(C)CCCNC(=O)c1ccc2c(c1)oc1cc3ccccc3c(=O)n12`, the GI50 with U251 CNS is 11.1 µM; in the test with T-47D breast, 11.5 µM; with MDA-MB-435, 19.1 µM; with COLO 205 colon, 14.6 µM; in the test with SF-295 CNS, 19 µM; with NCI-H522 lung, 9.33 µM. The GI50 is 11 µM in the test with CAKI-1 renal, more than 50 µM with UACC-62 melanoma and 40.9 µM in the test with OVCAR-4 ovarian. The TGI is 22.8 µM with U251 CNS; 26.7 µM in the test on T-47D breast; more than 50 µM in the test with MDA-MB-435; 32.5 µM in the test with COLO 205 colon; 40.5 µM in the test with SF-295 CNS; 21.8 µM in the test with NCI-H522 lung. Also, the TGI was 28.6 µM in the test on CAKI-1 renal, more than 50 µM in the test on UACC-62 melanoma and more than 50 µM in the test with OVCAR-4 ovarian.
For the compound `CCN(CC)C(=S)SC`, the TGI in the test with U251 CNS, in the test with T-47D breast, in the test on COLO 205 colon, in the test on SF-295 CNS, with HCC-2998 colon and in the test with NCI-H522 lung was more than 100 µM throughout. Further, in the test with UACC-62 melanoma, the TGI was more than 100 µM.
As for `Cc1cc(S(=O)(=O)NC#N)c(S/C(=N\Nc2ccc([N+](=O)[O-])cc2)c2ccc(Cl)cc2)cc1Cl`, the GI50 is 48.2 µM with U251 CNS; 3.89 µM in the test with T-47D breast; 64.3 µM with MDA-MB-435; 15.2 µM in the test on COLO 205 colon; 22.7 µM with SF-295 CNS; 21.8 µM in the test on NCI-H522 lung. For the same compound, the results for the GI50 in the test with CAKI-1 renal, in the test on UACC-62 melanoma and with OVCAR-4 ovarian were 36.1 µM, more than 100 µM and 20.9 µM, respectively. Also, the TGI in the test on U251 CNS was more than 100 µM; in the test with T-47D breast, 42.6 µM; with MDA-MB-435, more than 100 µM; with COLO 205 colon, 30.7 µM; in the test on SF-295 CNS, 65.5 µM; in the test on NCI-H522 lung, 89.5 µM. For the same compound, the figures for the TGI with CAKI-1 renal, in the test on UACC-62 melanoma and with OVCAR-4 ovarian were more than 100 µM, more than 100 µM and 75 µM, respectively.
For `O=C(O)C1CCCCC1C(=O)O.[NH-]C1CCC1.[NH2-].[Pt+2]` (stereo not given), the GI50 in the test on U251 CNS was 58 µM; with T-47D breast, 11 µM; in the test with MDA-MB-435, 15.7 µM; with COLO 205 colon it was 10.3 µM; in the test with SF-295 CNS, 42.6 µM; with NCI-H522 lung, 7.21 µM. For the same compound, the results for the GI50 with CAKI-1 renal, in the test on UACC-62 melanoma and in the test on OVCAR-4 ovarian were 2.61 µM, 11.4 µM and 15.2 µM, respectively. Also, the TGI with U251 CNS is more than 100 µM; in the test on T-47D breast, 34.7 µM; in the test with MDA-MB-435 it was 29.3 µM; in the test with COLO 205 colon it was 24.6 µM; in the test on SF-295 CNS, more than 100 µM; in the test with NCI-H522 lung, more than 100 µM. In addition, the figures for the TGI in the test with CAKI-1 renal, with UACC-62 melanoma and in the test on OVCAR-4 ovarian were 17.4 µM, 23.6 µM and 29.7 µM, respectively.
Consider `Cc1nc2sccn2c1-c1csc(Nc2cccc(Cl)c2C)n1`, for which the GI50 is 4.37 µM with U251 CNS; 1.95 µM in the test on MDA-MB-435; 6.75 µM with COLO 205 colon; 1.72 µM in the test with SF-295 CNS; 10.4 µM in the test with HCC-2998 colon; 3.94 µM in the test on NCI-H522 lung. Besides, the values for the GI50 in the test with CAKI-1 renal, in the test with UACC-62 melanoma and with OVCAR-4 ovarian were 3.73 µM, 3.93 µM and 3.05 µM, respectively. Besides, the TGI in the test with U251 CNS came out at 19.6 µM; in the test with MDA-MB-435, 6.47 µM; with COLO 205 colon, 43.7 µM; with SF-295 CNS, 10.6 µM; in the test on HCC-2998 colon, 40.7 µM; in the test with NCI-H522 lung, 26.5 µM. Moreover, the TGI was 33.3 µM in the test on CAKI-1 renal, 19.8 µM in the test on UACC-62 melanoma and more than 100 µM in the test with OVCAR-4 ovarian.
As for `Nc1ccccc1C#C/C=C\C#Cc1ccccc1`, the GI50 is 19.2 µM with U251 CNS; 17.7 µM in the test on T-47D breast; 2.64 µM in the test with MDA-MB-435; 14.9 µM with COLO 205 colon; 11.3 µM with SF-295 CNS; 4.72 µM in the test on NCI-H522 lung. In addition, the values for the GI50 with CAKI-1 renal, in the test with UACC-62 melanoma and in the test on OVCAR-4 ovarian were 1.44 µM, 13 µM and 12.1 µM, respectively. Further, the TGI in the test with U251 CNS is 46.9 µM; in the test with T-47D breast it was 38.3 µM; in the test with MDA-MB-435 it was 6.31 µM; in the test with COLO 205 colon it was 29.3 µM; in the test on SF-295 CNS, 31.8 µM; in the test with NCI-H522 lung, 20.5 µM. Also, the TGI in the test on CAKI-1 renal was found to be 8.35 µM; with UACC-62 melanoma it was 27.7 µM; with OVCAR-4 ovarian it was 32.4 µM.
On to `COc1ccc(C2=NN(C=O)C(c3cccc(Nc4ccnc5cc(Cl)ccc45)c3)C2)cc1` (stereo not given), for which the GI50 is 2.77 µM with U251 CNS; 1.39 µM in the test with T-47D breast; 0.37 µM in the test on MDA-MB-435; 2.4 µM in the test with COLO 205 colon; 1.24 µM in the test on SF-295 CNS; 11.7 µM in the test with HCC-2998 colon. Further, the GI50 is 1.33 µM with NCI-H522 lung, 2.41 µM in the test on UACC-62 melanoma and 1.54 µM in the test with OVCAR-4 ovarian. Besides, the TGI in the test on U251 CNS was 14.4 µM; in the test on T-47D breast, 21 µM; in the test on MDA-MB-435, 13.1 µM; in the test on COLO 205 colon, 9.88 µM; with SF-295 CNS, 23 µM; in the test on HCC-2998 colon, 94.3 µM. Further, the TGI was 12.7 µM in the test on NCI-H522 lung, 20.6 µM with UACC-62 melanoma and 31.8 µM with OVCAR-4 ovarian.
